Results on two molecules are retold here after publication PMC5707495, “Systematic re-evaluation of the bis(2-hydroxyethyl)disulfide (HEDS) assay reveals an alternative mechanism and activity of glutaredoxins” (Chemical Science, 2015).

The target of assay [1] is T1, ScGrx7 (Saccharomyces cerevisiae, UniProt P38068).
T1 construct: gene GRX7; recombinant, N-terminal MRGS(H)6 tag kept, altered stop codon; E. coli XL1-Blue; non-covalent dimer; monothiol, one Cys per subunit
T1 sequence (P38068 37-203 limits assumed): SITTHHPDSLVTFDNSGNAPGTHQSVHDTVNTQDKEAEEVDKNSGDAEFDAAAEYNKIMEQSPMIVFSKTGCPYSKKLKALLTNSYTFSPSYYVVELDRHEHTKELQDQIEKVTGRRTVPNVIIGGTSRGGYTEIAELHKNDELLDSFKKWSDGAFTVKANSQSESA
Kind of assay: HEDS assay coupled to glutathione reductase, NADPH […] nm; Km replot and Dixon plot. The assay is classed as biochemical.

In assay [2] the target is T2, PfGrx (Plasmodium falciparum, UniProt Q9NLB2).
T2 construct: gene PF3D7_0306300; dithiol Grx with Cys29 and Cys32 (CPYC motif) and Cys88 (GGC motif)
T2 sequence (Q9NLB2 1-111): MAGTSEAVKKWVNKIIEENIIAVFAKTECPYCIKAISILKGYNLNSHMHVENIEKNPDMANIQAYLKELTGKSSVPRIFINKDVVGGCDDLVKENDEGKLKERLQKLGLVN
Kind of assay: HEDS assay coupled to glutathione reductase, NADPH […] nm. Particulars: co-substrate GSH; sequential kinetics; pH 8.0, 25 °C. The assay is classed as biochemical.

In general, Ki refers to the dissociation constant of the complex between target and ligand, obtained from inhibition or displacement.

Take `OCCS` [2-ME]: the Ki in assay [1] was determined as 180 µM.

Consider `OCCSSCCO` [HEDS, bis(2-hydroxyethyl)disulfide], for which the “HEDS assay coupled to glutathione reductase, NADPH 340 nm” value in assay [2] is reported as “HEDS assays with PfGrx yielded sequential kinetic patterns”.
